In patent US12103939B2, “Solid pharmaceutical gold-based composition” (KING FAHD UNIVERSITY OF PETROLEUM AND MINERALS, priority 2019, dated 2024):

What was measured:
[1] = system: PC3 cells; assay: Cellular uptake of gold(III) complexes (ICP-MS); type: cell-based, human; details: 3 μM, 2 h, ICP mass spectrometry
Protocol: After treatment, monolayers were washed with ice-cold PBS four times, and the cells were detached with trypsin-EDTA and washed three times with ice-cold PBS by centrifugation. The cell pellet was solubilized in 700 μL of HNO3—HCl solution (1:3 molar ratio) for 2 h at 100° C., and then diluted with 4 mL water. Samples were analyzed for gold on an Agilent 7500 inductively coupled plasma mass spectrometer (ICP-MS). Results were expressed as ng gold/10^6 cells. The experiment was performed a total of two times and the results were expressed as mean and SD.

[2] = system: PC3 cells; assay: In vitro scratch assay (cell migration); type: cell-based, human; details: PC3, 3 h pretreatment with C6 (IC50), 36 h after scratch; control about 10%
Protocol: Cell migration was assessed using the in vitro scratch assay. Briefly, cells were grown to confluence and then treated with C6 (IC50). After 3 h, monolayers were washed twice with PBS, scraped with a pipette tip to create a “wound” in the monolayer, and washed again. Culture medium with 2% (not 10%) FBS was added and the cells were cultured for 36 h. Wounds were photographed every 12 h using an inverted microscope (EclipseTS/100, Nikon) at magnification 4×. Migration was assessed by measuring the cell-free area (in pixels) with ImageJ tool software after 12, 24 and 36 h.

[3] = system: PC3 cell xenografts; assay: Human prostate tumor xenograft experiment; type: in vivo, female athymic nude mice
Protocol: Animal experiments were approved by the Italian Ministry of Health (no. 671/2015/PR). Ten 4-week-old female athymic nu/nu (nude) mice were purchased from Envigo. PC3 cells (3×10^6 in a 0.1 mL solution of Matrigel 1:3 in PBS) were inoculated subcutaneously into the right flank of each mouse. Body weight and tumors were measured three times a week, and tumor volumes were calculated according to the formula: (width^2×length×3.14)/6. When tumors reached a volume of ca. 120 mm^3, mice were divided into two groups of five animals each. Mice were treated every other day with an intratumoral injection of 2.5 mg/kg C6 or an equal volume of vehicle (10% DMSO, 20% Cremophor Sigma-Aldrich, 70% PBS). Mice were killed on day 32 when control tumors had reached about 1300 mm^3.

[4] = system: 20S proteasome; assay: 20S proteasome activity in lysates of treated PC3 cells; type: cell-based, human; details: PC3, 12 h
Protocol: Proteasome activity (EC 3.4.25.1) was evaluated on the same cell lysates as used to assay TrxR. Proteasome activity was assayed in cytosolic extracts using the 20S Proteasome Activity Assay kit APT280 (Merck Millipore) and a computer-interfaced GeniusPlus microplate reader (Tecan).

[5] = system: PC3 cells; assay: Apoptosis assay (Annexin V-FITC / propidium iodide, flow cytometry); type: cell-based, human; details: PC3, C6 at IC50 and IC75, 24 h
Protocol: For apoptosis assays, PC3 cells were treated with C6 for 24 h and then apoptosis was assayed by staining for 15 min with FITC Annexin V reagent (BD Pharmingen) and propidium iodide (PI). Apoptotic cells were detected by flow cytometry (BD FACSCanto II flow cytometer) and analyzed using BD FACSDiva v8.0.1 software (BD Biosciences). Caspase 3,7 activation was evaluated using fluorochrome-labeled inhibitors of caspases (FLICA) of the CaspaTag Caspase 3,7 In Situ Assay Kit, Fluorescein (Millipore) and evaluated by flow cytometry; data were expressed as mean fluorescence intensity.

For `C[N+](C)=C1[S][Au-]2([S]1)[n+]1ccc[n+]3c1-c1[n+]2ccc[n+]1[Au-]31[S]C(=[N+](C)C)[S]1.[Cl-].[Cl-].[Cl-].[Cl-]` [C6, [Au2(BPM)(DMDTC)2]Cl4], the “amount of internalized gold (cellular uptake)” value [1] was “internalization even greater than that of C7”, the “remaining uncovered area in scratch assay” value [2] was “about 40%” and the “inhibitory effect on tumor growth” value ([3]; day 32, 2.5 mg/kg intratumoral every other day, vs vehicle) was 71%. The mean tumor volume ([3]; day 32, 2.5 mg/kg intratumoral every other day, control 1327 mm^3) was 385 mm^3, the “weight of the animals” value ([3]; xenografted mice, 2.5 mg/kg intratumoral) was “did not affect the weight of the animals” and the 20S proteasome activity [4] was “dose-dependent inhibitory effect”. The “percentage of annexin-V-positive and annexin-V/PI-positive cells (apoptosis)” value [5] was “dose-dependent increase in the percentage of annexin-V-positive cells”.
